Literature values in PMC3848067 (Acta Naturae, 2013).
Read-outs that look alike come from different tables or passages of the source.

Tests used:
[1] = dogs, value for the tested compound (2 or its metabolite AZT), cited from earlier work
[2] = set-up: method as in PMID 20380483; details: after oral administration of the named drug; cited from earlier work
[3] = dogs, cited from earlier work; for tmax of AZT: oral phosphonate 2 capsules 600 mg daily
[4] = cited from earlier work
[5] = rabbits, single oral dose of the named compound equivalent to 200 mg of AZT/kg; cited from earlier work
[6] = metabolite AZT after oral phosphonate 2, 20 mg/kg, rats; cited from earlier work
[7] = canine whole blood at 37°С; cited from earlier work
HIV-1 [8] = details: MT-4 cell culture; cited from earlier work
[9] = cited from earlier work; remark: listed apart in the source
HIV = details: cited from earlier work
HIV-1 [10] = details: MT-4, CEM-SS and CEM-X174 cell lines; cited from earlier work
HIV-1 [11] = details: cell cultures C8 and JM; cited from earlier work
IIIB strain of HIV = IIIB strain of HIV in blood mononuclear cells; cited from earlier work
MT-4 cells = details: MT-4 cell culture; cited from earlier work
HIV infection = details: cited from earlier work
mice = details: intraperitoneal administration to mice; cited from earlier work
HXB2 strain of HIV = HXB2 strain of HIV in blood mononuclear cells; cited from earlier work
[12] = single oral dose of capsules of 2, 10 mg/kg
[13] = single oral dose of capsules of 2, 20 mg/kg
[14] = single oral dose of capsules of 2, 40 mg/kg
[15] = compound 2 orally 600 mg for 7 days, 24 h intervals, day 7

SMILES: Cc1cn([C@H]2C[C@H](N=[N+]=[N-])[C@@H](CO)O2)c(=O)[nH]c1=O [AZT, 3’-azido-3’-deoxythymidine]
- Cmax [1, 12]: 360 ± 240 ng/mL
- Cmax/AUC [1, 12]: 0.119 ± 0.033 h⁻¹
- MRT [1, 12]: 8.90 ± 5.34 h
- t1/2 [1, 12]: 4.57 ± 1.46 h
- tmax [1, 12]: 4.7 ± 1.0 h
- Cmax [1, 13]: 690 ± 490 ng/mL
- Cmax/AUC [1, 13]: 0.107 ± 0.023 h⁻¹
- MRT [1, 13]: 12.0 ± 2.6 h
- t1/2 [1, 13]: 9.7 ± 4.3 h
- tmax [1, 13]: 5.0 ± 1.7 h
- Cmax [1, 14]: 980 ± 560 ng/mL
- Cmax/AUC [1, 14]: 0.100 ± 0.016 h⁻¹
- MRT [1, 14]: 12.2 ± 1.4 h
- t1/2 [1, 14]: 7.0 ± 2.5 h
- tmax [1, 14]: 6.0 ± 1.3 h
- Cmax of AZT [2]: ~1200 ng/mL
- tmax of AZT [2]: 0.5 to 0.8 h
- С0 of AZT in plasma [3, 15]: 0.17 ± 0.07 mg/L
- Сmin of AZT in plasma [3, 15]: 0.17 ± 0.07 mg/L
- tmax of AZT ([3]; day 1): 2.7 h
- tmax of AZT ([3]; day 7): 4 h
- half-life period (blood plasma) ([4]; AZT concentration after oral administration of phosphonate 2): 3.9 h
- detection of AZT in organs and tissues (liver, kidneys, spleen, lungs, skeletal muscles, mesentery) ([4]; metabolite of phosphonate 2): detected in all these organs and tissues
- AUC of AZT [5]: 88500 ± 25500 ng·h/mL
- Cmax of AZT [5]: 39640 ± 4240 ng/mL
- MRT of AZT [5]: 2.10 ± 0.30 h
- t1/2 of AZT [5]: 2.13 ± 0.71 h
- tmax of AZT [5]: 1.0 h
- AUC 0-t [6]: 2270 ng·h/mL
- MRT [6]: 6.54 h
- tmax [6]: 4 h
- Сmax [6]: 0.4 mg/L

SMILES: Cc1cn(C2CC(N=[N+]=[N-])C(CO[PH](=O)[O-])O2)c(=O)[nH]c1=O.[Na+] (centres unmarked) [Compound 1, sodium salt of AZT 5’-H-phosphonate]
- Т1/2 in canine whole blood [7]: 3 h
- anti-HIV activity (HIV-1 [8]): moderate
- selectivity index compared to AZT (HIV-1 [8]): higher than that of AZT
- half-life in 100% human blood serum [9]: over 6 h
- penetration of AZT through the placenta (HIV; AZT from phosphazide): capable of efficiently penetrating the placenta
- effect on course of pregnancy, fetal maturity or viability (HIV; HIV-infected women): does not affect
- prevention of vertical transmission of HIV (HIV; during pregnancy, combined with Retrovir or Nevirapine during childbirth and postnatal period): efficiently prevents vertical transmission of HIV
- activity compared to AZT (HIV-1 [10]): lower than that of AZT by almost an order of magnitude
- anti-HIV activity, times higher vs. that of AZT (HIV-1 [11]): 10–20 times
- selectivity index, times higher than that of AZT (IIIB strain of HIV): 1.5 times
- toxicity as compared to AZT (MT-4 cells): lower
- therapeutic efficacy (HIV infection; HIV-infected patients receiving HAART): significant therapeutic efficacy
- tolerability (HIV infection; adults and children): well tolerated in both adults and children
- therapeutic effect (reduction of viral stress, immunorestoration, decrease in risk of concomitant diseases) (HIV infection; clinical practice): stable positive therapeutic effect
- adverse effects typically observed with AZT (vomiting, nausea, headache, diarrhea, myalgia, anemia, thrombocytopenia, neutrocytopenia) (HIV infection; during phosphazide therapy): No adverse effects
- safety in patients with opportunistic infections (HIV infection; patients with tuberculosis and liver pathologies of viral etiology): safe for patients with tuberculosis and liver pathologies of viral etiology
- mean lethal dose (LD50) (mice): 2300 mg/kg
- selectivity index, times higher than that of AZT (HXB2 strain of HIV): 15 times
